Entries after “also recorded” stand apart in the source; their conditions may differ.
Key:
[1] = test system: Mycobacterium tuberculosis mc^26206 (WT); assay type: cell-based
[2] = test system: Mtb-infected human THP-1 macrophages; assay type: cell-based, Mycobacterium tuberculosis
[3] = test system: Mtb strain mc^26206 wild-type, hypoxic non-replicating; assay type: cell-based, Mycobacterium tuberculosis
[4] = test system: panel of bacteria consisting of S. aureus, E. faecium, E. coli, K. pneumoniae, A. baumannii and P. aeruginosa; assay type: cell-based

| Structure (SMILES) | anti-tuberculosis activity against wild type Mtb (in words) [1] | intracellular anti-tuberculosis activity (in words) [2] | further results |
| --- | --- | --- | --- |
| O=c1ccc2nc3ccc(OCCO)cc3oc-2c1 [Compound 6s, 7‐(2‐Hydroxyethoxy)‐3H‐phenoxazin‐3‐one] | completely inactive | – | – |
| COCOc1ccc2nc3ccc(=O)c(I)c-3oc2c1 [Compound 8h, 4‐Iodo‐7‐(methoxymethoxy)‐3H‐phenoxazin‐3‐one] | – | intracellular TB killing | – |
| COc1ccc2nc3ccc(=O)cc-3oc2c1 [Compound 6j, 7‐Methoxy‐3H‐phenoxazin‐3‐one] | – | – | time-kill kinetic assay under hypoxia (in words) [3]: inactive |
| COCCOc1ccc2nc3ccc(=O)cc-3oc2c1 [Compound 6i, 7‐(2‐Methoxyethoxy)‐3H‐phenoxazin‐3‐one] | – | intracellular TB killing | intracellular Mtb survival [2]: approximately 10% |
| O=c1ccc2nc3ccc(OCc4ccc([N+](=O)[O-])o4)cc3oc-2c1 [Compound 1, 7‐((5‐Nitrofuran‐2‐yl)methoxy)‐3H‐phenoxazin‐3‐one] | – | intracellular TB killing | time-kill kinetic assay under hypoxia (in words) [3]: inactive; activity against a panel of bacteria (in words) [4]: inactive |
| O=c1ccc2nc3ccc(O)cc3oc-2c1 [Compound 2, resorufin, reference compound] | no anti‐tuberculosis activity; also recorded: inactive | – | activity against a panel of bacteria (in words) [4]: inactive |
| O=c1ccc2nc3ccc(OCc4ccccc4)cc3oc-2c1 [Compound 6g, 7‐(Benzyloxy)‐3H‐phenoxazin‐3‐one] | no anti‐tuberculosis activity | – | – |
| O=c1ccc2nc3ccc(OCc4ccc([N+](=O)[O-])cc4)cc3oc-2c1 [Compound 6b, 7‐((4‐Nitrobenzyl)oxy)‐3H‐phenoxazin‐3‐one] | no anti‐tuberculosis activity | – | MIC90 Mtb WT [1]: >256 µM |
| O=c1ccc2nc3ccc(OCC4(CO)COC4)cc3oc-2c1 [Compound 6y, 7‐((3‐(Hydroxymethyl)oxetan‐3‐yl)methoxy)‐3H‐phenoxazin‐3‐one] | completely inactive | – | – |

From publication PMC11648835 (Chemmedchem, 2024)
